In US20130217132A1, “METHODS, COMPOSITIONS AND USE FOR ENHANCING CHEMICAL TOLERANCE BY MICROORGANISMS” (priority 2009, published 2013):
In brackets after ≈: the same amount, converted by molar mass. Read-outs that look alike come from different tables or passages of the source.

System: BW25113 E. coli strain
Assay: Minimum inhibitory concentration (MIC) assay of furfural in MOPS minimal media
Assay type: cell-based
Settings: Escherichia coli, n=3, read-out: MIC (first concentration of furfural that inhibited bacterial growth)
Protocol: In one exemplary method, assays were performed to determine minimum inhibitory concentration (MIC) of ethanol, furfural and acetate for BW25113 and MG1655 E. coli strains. FIG. 16 represents a histogram plot of illustrating tolerance differences of furfural in BW25113 and MG1655 E. coli strains. Cells from each strain were inoculated from the same optical density into a total of 100 μL of varying furfural concentrations in a minimal media, for example using MOPS. Cell growth in the first 24 hr or 48 hr in the presence of furfural was monitored. The left bar in each pair for each indicated strain represents a first concentration of furfural that inhibited bacterial growth after 24 hr. The right bar for each strain represents the first concentration that inhibited growth after 48 hr. The MIC reads were the average of triplicates (n=3), and error bars represent standard deviation. […] Thus, this difference in strains led to further investigation into the difference between these strains. ArecA signifies strains where the gene has been knocked out as previously described.

Structure (SMILES): O=Cc1ccco1 [furfural, furan-2-carbaldehyde]
- MIC (BW25113, after 24 hr): 500 µg/mL (≈ 5.2 mM)
- MIC (BW25113, after 48 hr): 1200 µg/mL (≈ 12.5 mM)
